These results are taken from article PMC2649378 (European Journal of Pharmacology, 2008).

Where a chain is given by its changes, count along the chain named. Values joined by “and” are separate entries in the source; they are usually repeats but may differ in a detail not shown here. Equal values may be shown once.

The target of assay [1] is T1, E236A mutant 5-HT3A receptors (Mus musculus, UniProt P23979, E236A).
T1 construct: expressed in transfected cells; host or cells: HEK 293 cells (pcDNA3.1); Kunkel mutagenesis
T1 sequence (P23979 24-489 E236A): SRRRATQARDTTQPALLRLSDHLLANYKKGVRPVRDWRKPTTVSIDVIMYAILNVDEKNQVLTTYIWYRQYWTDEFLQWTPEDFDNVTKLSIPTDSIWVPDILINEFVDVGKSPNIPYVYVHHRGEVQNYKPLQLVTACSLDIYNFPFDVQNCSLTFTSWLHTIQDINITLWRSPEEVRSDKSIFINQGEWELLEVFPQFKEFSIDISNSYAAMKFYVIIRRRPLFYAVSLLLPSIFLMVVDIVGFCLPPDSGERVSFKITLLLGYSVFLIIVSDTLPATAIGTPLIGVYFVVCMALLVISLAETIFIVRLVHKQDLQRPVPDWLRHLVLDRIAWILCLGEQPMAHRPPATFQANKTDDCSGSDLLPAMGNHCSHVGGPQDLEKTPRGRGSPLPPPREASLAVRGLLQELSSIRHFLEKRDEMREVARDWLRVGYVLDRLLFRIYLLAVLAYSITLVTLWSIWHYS
The experiment in a line: [3H]granisetron competition binding, E236A mutant 5-HT3A receptors. The procedure:
Mouse 5-HT3A (accession number: AY605711) or 5-HT3B (accession number: NM_020274, kindly provided by Ewen Kirkness) subunit cDNAs were cloned into pGEMHE for oocyte expression ([Liman et al., 1992]). cRNA was in vitro transcribed from linearised (NheI) plasmid cDNA template using the mMessage mMachine T7 kit (Ambion, Austin, Texas, USA). Stage V and VI oocytes were injected with 50 ng–100 ng cRNA, and recorded from 1–4 days post-injection. For expression in HEK 293 cells, 5-HT3 receptor subunit cDNAs were cloned into pcDNA3.1 (Invitrogen Ltd., Paisley, UK.). Mutagenesis reactions were performed using the Kunkel method and confirmed by DNA sequencing. […]
This was undertaken in HEK 293 cells which provide an established and robust method of studying ligand binding. […] Radioactivity was determined by scintillation counting using a Beckman LS6000SC (Fullerton, California, USA). Competition binding data were analyzed by iterative curve fitting (GraphPad Prism v3.02, GraphPad Software, San Diego, California, USA), according to the equation: y=Bmin+Bmax−Bmin/1+10^[L]−logIC50 where Bmin is the lowest total binding, Bmax is the maximum specific binding at equilibrium, [L] is the concentration of competing ligand and IC50 is the concentration of competing ligand that blocks half of the specific bound radioligand. […]

The target in assay [2] is T2, 5-HT3AB receptors (Mus musculus, UniProt P23979+Q9JHJ5).
T2 construct: expressed in transfected cells; host or cells: Xenopus laevis oocytes injected with cRNA (pGEMHE)
T2 sequence (P23979 24-489): T1 sequence (P23979 24-489 E236A) with A213E
T2 sequence (Q9JHJ5 22-437): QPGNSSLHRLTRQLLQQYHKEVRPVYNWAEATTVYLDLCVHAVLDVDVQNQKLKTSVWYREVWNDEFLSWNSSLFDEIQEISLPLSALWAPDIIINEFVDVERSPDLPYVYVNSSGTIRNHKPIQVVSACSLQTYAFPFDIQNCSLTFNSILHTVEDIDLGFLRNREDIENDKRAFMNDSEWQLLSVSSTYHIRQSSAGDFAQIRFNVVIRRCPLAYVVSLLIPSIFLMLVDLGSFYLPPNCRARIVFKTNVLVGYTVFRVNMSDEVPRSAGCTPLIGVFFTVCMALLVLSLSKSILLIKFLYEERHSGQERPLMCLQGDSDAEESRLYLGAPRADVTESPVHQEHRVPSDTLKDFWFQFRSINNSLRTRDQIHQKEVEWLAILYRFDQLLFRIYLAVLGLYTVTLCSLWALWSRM
The assay is described as follows: Agonist-induced currents in Xenopus oocytes expressing 5-HT3AB receptors (OpusXpress electrophysiology). It counts as cell-based. The procedure: Harvested stage V–VI Xenopus oocytes were washed in six changes of ND96 (96 mM NaCl, 2 mM KCl, 1 mM MgCl2, 1.8 mM CaCl2, 5 mM HEPES, pH 7.5), de-folliculated in 1.5 mg ml^− 1 collagenase Type 1A for approximately 2 h. Enzyme treatment was terminated by washing in six changes of ND96 and oocytes were stored in ND96 containing 2.5 mM sodium pyruvate, […] and 0.7 mM theophylline.
(§1) Mouse 5-HT3A (accession number: AY605711) or 5-HT3B (accession number: NM_020274, kindly provided by Ewen Kirkness) subunit cDNAs were cloned into pGEMHE for oocyte expression ([Liman et al., 1992]). cRNA was in vitro transcribed from linearised (NheI) plasmid cDNA template using the mMessage mMachine T7 kit (Ambion, Austin, Texas, USA). Stage V and VI oocytes were injected with 50 ng–100 ng cRNA, and recorded from 1–4 days post-injection. For expression in HEK 293 cells, 5-HT3 receptor subunit cDNAs were cloned into pcDNA3.1 (Invitrogen Ltd., Paisley, UK.). Mutagenesis reactions were performed using the Kunkel method and confirmed by DNA sequencing. Cells were transfected using calcium phosphate precipitation at 80–90% confluency ([Jordan et al., 1996]). Following transfection cells were incubated for 3–4 days before assay.
Agonist-induced currents were recorded at 22–25 °C from individual oocytes using the OpusXpress system (Molecular Devices Axon Instruments, Union City, CA). […] The holding potential was − 60 mV.

The target of assay [3] is T2, 5-HT3AB receptors. The experiment in a line: [3H]granisetron binding to membranes of transfected HEK 293 cells, 5-HT3AB receptors. The procedure:
as §1
(§2) This was undertaken in HEK 293 cells which provide an established and robust method of studying ligand binding. Methods were as previously described ([Lummis et al., 1993]), with minor modifications. Briefly, transfected HEK 293 cells were washed twice with phosphate buffered saline (PBS) at room temperature and scraped into 1 ml of ice-cold HEPES buffer (10 mM, pH 7.4) containing the following proteinase inhibitors (PI): 1 mM EDTA, 50 μg ml^− 1 soybean trypsin inhibitor, 50 μg/ml bacitracin and 0.1 mM phenylmethylsulphonyl fluoride. […] Competition binding was performed using ligand concentrations from 0.1 μM–10 mM. Reactions were incubated for at least 1 h at 4 °C and terminated by vacuum filtration using a Brandel cell harvester onto GF/B filters pre-soaked in 0.3% polyethyleneimine. Radioactivity was determined by scintillation counting using a Beckman LS6000SC (Fullerton, California, USA). Competition binding data were analyzed by iterative curve fitting (GraphPad Prism v3.02, GraphPad Software, San Diego, California, USA), according to the equation: y=Bmin+Bmax−Bmin/1+10^[L]−logIC50 where Bmin is the lowest total binding, Bmax is the maximum specific binding at equilibrium, [L] is the concentration of competing ligand and IC50 is the concentration of competing ligand that blocks half of the specific bound radioligand. Ki values were estimated from IC50 values using the Cheng–Prusoff equation: Ki=IC50/1+[L]/Kd
(§3) where Ki is the equilibrium dissociation constant for binding of the unlabeled antagonist, [L] is the concentration of radioligand and Kd is the equilibrium dissociation constant of the radioligand.

The target of assay [4] is T3, 5-HT3A receptors (Mus musculus, UniProt P23979).
T3 construct: expressed in transfected cells; host or cells: Xenopus laevis oocytes injected with cRNA (pGEMHE)
T3 sequence (P23979 24-489): T1 sequence (P23979 24-489 E236A) with A213E
The experiment in a line: [3H]granisetron binding to membranes of transfected HEK 293 cells, 5-HT3A receptors. The procedure: as §1, §2, §3

For orientation: Ki means a measure of affinity in units of concentration, obtained from inhibition or displacement. A higher Ki goes with weaker binding. As a reminder, the EC50 is the midpoint of the concentration-response curve. Low readings indicate a more potent agent, high ones a less potent agent. On to `NCCc1c[nH]c2ccc(F)cc12` [5-FT, 5-fluorotryptamine], for which the Ki was 1.62 ± 0.41 µM in assay [1]; 1.8 ± 0.4 µM in assay [3]; 0.8 µM and 0.83 µM in assay [4] (Ki, displacement of [3H]granisetron binding, WT 5-HT3A receptors, HEK 293 membranes, 0.5 nM [3H]granisetron, 4 °C). In addition, the agonist character entry in assay [2] (5-HT3AB receptors) was “partial agonist”. Further, the “nH (Hill slope)” value in assay [2] (5-HT3AB receptors in Xenopus oocytes) is 1.4 and 1.4 ± 0.3. Moreover, in assay [2] (5-HT3AB receptors in Xenopus oocytes, maximal concentration), the “Relative efficacy Rmax = Imax drug / Imax 5-HT” value was 0.45 and 0.45 ± 0.04. Moreover, in assay [2] (EC50, 5-HT3AB receptors in Xenopus oocytes, holding potential -60 mV), the EC50 came to 27 µM. Besides, the “Ki relative to the Ki for 5-HT” value in assay [4] (5-HT3A receptors, fold greater than 5-HT) is on record as around 10 fold.
